What was measured:
[1] = test system: Db/Db female mice, diabetic model of impaired wound healing; experiment: In vivo splinted full-thickness excisional wound model, re-epithelialization analysis; parameters: species or system mouse; settings: for re-epithelialization vs vehicle control: daily topical 0.2% fluoxetine or 2% serotonin in 5% polyethylene glycol, day 10
Experimental: Panel B: Histomorphometric analysis of wounds. Representative histology sections for each group were chosen. Following euthanasia of animals, wounds were excised, biopsied and bisected. Wound tissue was fixed in paraformaldehyde for 12-16 hours and then paraffin embedded. Serial 5 μm sections were obtained from the center of the wound and the section with the largest wound bed (as defined by distance between hair follicles) was stained with hemotoxylin and eosin. Images were taken using 10× objective on a Keyance microscope. Panels C-D: Re-epithelialization was determined on sections created as in panel B. Image J analysis software was utilized to divide the re-epithelialized tissue (distance from hair follicle to remaining wound) by the entire original wound surface (as defined as distance between hair follicles). Panel D provides the distribution of data depicted in Panel C. P values were derived using a 2-tailed t-test.
13 week-old Db/Db female mice underwent full-thickness excisional biopsies with 8 mm punch biopsies. Wounds were splinted to prevent contraction. At day 12, animals were sacrificed and wounds were harvested to assess re-epithelialization. Representative histology sections for each group were chosen. Following euthanasia of animals, wounds were excised, biopsied and bisected. Wound tissue was fixed in paraformaldehyde for 12-16 hours and then paraffin embedded. Serial […] sections were obtained from the center of the wound and the section with the largest wound bed (as defined by distance between subcutaneous fat tissue) was stained with hemotoxylin and eosin. Images were taken using 10× objective on a Keyance microscope. (A) Re-epithelialization was determined on sections created. Image J analysis software was utilized to divide the re-epithelialized tissue by the entire original wound surface. (B) Percent of wounds at different stages of re-epithelialization was quantified. Data represented as Mean±SEM. P values were derived using a 2-tailed t-test. N=5/group.
13 week-old Db/Db female mice underwent full-thickness excisional wounding with 8 mm punch biopsy tool. All wounds were splinted to prevent contraction. […] At day 11, animals were sacrificed and wounds were harvested to assess re-epithelialization. Representative histology sections for each group were chosen. Following euthanasia of animals, wounds were excised, biopsied and bisected. Wound tissue was fixed in paraformaldehyde for 12-16 hours and then paraffin embedded. Serial […] sections were obtained from the center of the wound and the section with the largest wound bed (as defined by distance between subcutaneous fat tissue) was stained with hemotoxylin and eosin. Images were taken using 10× objective on a Keyance microscope. Re-epithelialization was determined on sections created. Image J analysis software was utilized to divide the re-epithelialized tissue by the entire original wound surface. Data represented as Mean±SEM. N=5/group.
Diabetic status (blood glucose >300 mg/dl) was confirmed in female Db/Db mice at age 11 weeks. At age 13 weeks, mice underwent hair removal and synchronization of follicle cycling through depilation and shaving. Synchronization was confirmed based on lack of skin pigmentation in included mice. 1 day after synchronization, 13-week-old Db/Db female mice underwent full-thickness excisional wounding using a splinted model as described. Briefly, 8 mm punch biopsies were used to make full-thickness excisional wounds. […]

[2] = test system: phosphorylated STAT3 in keratinocytes; experiment: Multiplex assay, phosphorylated STAT3; format: cell-based, human; settings: 10 μM 5-HT for 6 hours, NHKs
Experimental: (§1) FIGS. 2A-C illustrate that serotonin (5-HT) increases keratinocyte migratory speed and re-epithelialization in a scratch wound ex vivo model, likely through the ERK-STAT3-NFkB pathway.
(§2) NHKs from 3 different donors were cultured in 100 mm dishes until 80% confluent and treated with 10 μM 5-HT for 6 hours. Protein lysates were collected and quantified with Bradford assays before proceeding according to manufacturer's protocol (Millipore Multiplex Assay (MILLIPLEX® MAP 48-680MAG). Results were normalized to total protein levels quantified separately by Bradford protein assays.

[3] = test system: NF-kB in keratinocytes; experiment: Multiplex assay, NF-kB; format: cell-based, human; settings: 10 μM 5-HT for 6 hours, NHKs
Experimental: as §1, §2

[4] = test system: phosphorylated ERK in keratinocytes; experiment: Multiplex assay, phosphorylated ERK; format: cell-based, human; settings: 10 μM 5-HT for 6 hours, NHKs
Experimental: as §1, §2

[5] = Serotonin degradation in culture (ELISA); format: physicochemical; settings: after 24 hours in culture, in both the presence and absence of BMSC
Excerpt: Serotonin is rapidly degraded when exposed to in vitro in culture conditions.

[6] = test system: BMSC; experiment: BMSC proliferation in vitro; format: cell-based; settings: 10 uM 5HT vs untreated BMSC; BMSC pooled from 3 donors

Structure (SMILES) | re-epithelialization compared to PEG vehicle control ([1]; daily topical 0.2% fluoxetine or 0.01% timolol, day 12) | re-epithelialization vs vehicle control [1] | increase in re-epithelialization compared to INTEGRA alone ([1]; day 11, all wounds with INTEGRA matrix, 1 μM fluoxetine daily, 250,000 MSC) | phosphorylation of STAT3 [2] | NF-kB protein [3] | phosphorylation of ERK [4] | serotonin in culture lost [5] | BMSC proliferation [6]
CNCCC(Oc1ccc(C(F)(F)F)cc1)c1ccccc1 (stereo not drawn) [fluoxetine] | increased | significantly improved | 17% |  |  |  |  | 
NCCc1c[nH]c2ccc(O)cc12 [serotonin] |  | significantly improved |  | significantly increased | increase | significantly increased | Over 50% | significantly increased

Source: US20190105260A1, “COMPOSITIONS AND METHODS TO PROMOTE WOUND HEALING” (The Regents of the University of California, priority 2016, published 2019)
